Test results from paper PMC3494461 (Journal of the American Chemical Society, 2012).

Legend:
[1] = target: T1, DXP synthase (Escherichia coli, UniProt P77488); experiment: steady-state DXP formation, Michaelis-Menten plot; assay type: biochemical; settings: D-GAP supplied as D,L-GAP; with pyruvate
T1 sequence (P77488 2-620): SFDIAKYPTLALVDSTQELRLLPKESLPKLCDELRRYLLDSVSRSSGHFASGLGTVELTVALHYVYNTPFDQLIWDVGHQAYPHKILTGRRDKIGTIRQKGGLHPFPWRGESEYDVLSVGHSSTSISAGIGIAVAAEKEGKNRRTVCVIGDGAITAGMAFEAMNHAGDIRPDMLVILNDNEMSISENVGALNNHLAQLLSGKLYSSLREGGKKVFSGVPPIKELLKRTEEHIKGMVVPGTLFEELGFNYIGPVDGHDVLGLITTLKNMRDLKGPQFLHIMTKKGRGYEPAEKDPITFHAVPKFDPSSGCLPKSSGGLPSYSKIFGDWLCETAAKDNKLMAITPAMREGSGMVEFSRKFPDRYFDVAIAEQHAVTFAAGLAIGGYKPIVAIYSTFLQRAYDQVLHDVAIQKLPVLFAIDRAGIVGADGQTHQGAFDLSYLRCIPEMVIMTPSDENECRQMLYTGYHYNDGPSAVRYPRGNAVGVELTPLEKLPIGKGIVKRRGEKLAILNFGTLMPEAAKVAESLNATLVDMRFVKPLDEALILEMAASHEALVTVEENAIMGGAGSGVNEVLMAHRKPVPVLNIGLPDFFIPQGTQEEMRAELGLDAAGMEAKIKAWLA

[2] = target: T1, DXP synthase; experiment: near-UV CD of enzyme-bound ThDP; assay type: binding; settings: AP tautomer dominant at pH 7.98
[3] = target: T1, DXP synthase; experiment: CD titration at […] nm; assay type: binding

Question: With `O=C[C@H](O)COP(=O)(O)O` [D-GAP] as the molecule, how does the Km [1] read?
Answer: Michaelis-Menten plot to determine the Km for D-GAP

Question: `Cc1ncc(C[n+]2csc(CCOP(=O)(O)OP(=O)(O)O)c2C)c(N)n1` [ThDP] was tested. Which “near-UV CD of enzyme-bound ThDP (negative band at 320 nm)” value [2] did it give?
Answer: suggesting the preponderance of the AP tautomer of ThDP bound to the enzyme

Question: With `CC(=O)C(=O)O` [pyruvate] as the molecule, how does the Kd [3] read?
Answer: ~90 µM
